Structures can show the parent of a compound that is named as a salt. Where two headings read alike, the source gives them in different places.
How the values were obtained:
human OX2 receptor [1] = biological target: T1, human OX2 receptor (Homo sapiens, UniProt O43614); assay: Measurement of orexin type 2 receptor agonist activity (Experimental Example 3; calcium 5 dye, FLIPR Tetra); format: cell-based; conditions: compound at 1 μM; CHO cells expressing human OX2 receptor; DMSO = 0%, 10 nM orexin A (human) = 100%
T1 construct: expressed in transfected cells
T1 sequence (O43614 1-444): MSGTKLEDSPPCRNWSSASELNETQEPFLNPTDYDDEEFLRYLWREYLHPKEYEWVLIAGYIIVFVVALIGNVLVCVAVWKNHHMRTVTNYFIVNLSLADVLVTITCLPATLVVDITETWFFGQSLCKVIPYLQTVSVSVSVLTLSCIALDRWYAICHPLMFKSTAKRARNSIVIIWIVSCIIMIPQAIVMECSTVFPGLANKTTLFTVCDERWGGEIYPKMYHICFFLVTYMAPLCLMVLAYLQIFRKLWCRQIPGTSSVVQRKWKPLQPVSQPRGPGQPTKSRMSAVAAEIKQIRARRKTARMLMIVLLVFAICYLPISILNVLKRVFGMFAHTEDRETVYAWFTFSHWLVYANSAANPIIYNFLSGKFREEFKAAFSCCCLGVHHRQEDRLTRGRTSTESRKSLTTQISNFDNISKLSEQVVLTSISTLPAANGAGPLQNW
Protocol: In order to obtain cell clones that stably express human orexin type 2 receptor, human orexin type 2 (residues 1-444, NCBI Reference Sequence: AK314279) was constructed in a pcDNA3.1 (+) vector (Invitrogen) to express in mammalian cells. This plasmid DNA was transfected into CHO-K1 cells by electroporation, and stable clones were obtained by limiting dilution using resistance to G418 as a selection marker.
CHO cells in which human OX2 receptor was forcibly expressed were seeded at 5,000 cells/well into a 384-well black transparent bottom plate (Costar) in 25 ul complete media, and were then incubated at 37° C., 5% CO2 for 1 day. The next day, 25 ul of 2× calcium 5 dye (Molecular Devices) in assay buffer (HBSS (Thermo Fisher Scientific), 20 mM HEPES (Thermo Fisher Scientific), 2.5 mM probenecid). After incubation in a 5% CO2 incubator at 37° C. for 40 minutes, it was incubated at room temperature for another 20 minutes. Add 5 μL/well of the test compound diluted with assay buffer B (HBSS, 20 mM HEPES), using FLIPR Tetra (Molecular Devices) to measure the fluorescence value every 1 second for 1 minute, and then every 2 seconds for 1 minute. It was measured for 1 minute and 40 seconds. The amount of fluorescence value when DMSO is added instead of the test compound is defined as 0%, and the amount of fluorescence value when orexin A (human) (Peptide Institute) with a final concentration of 10 nM is added is defined as 100%. The activity (%) of the test compound was calculated.

human OX2 receptor [2] = biological target: T1, human OX2 receptor; assay: Measurement of orexin type 2 receptor agonist activity (Experimental Example 2; Fluo-4 AM calcium fluorescence, FDSS μCELL); format: cell-based; conditions: compound at 3 μM; CHO cells expressing human OX2 receptor; DMSO = 0%, 10 nM orexin A (human) = 100%
Method in brief: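 Agonism was tested in CHO-K1 cells stably expressing human OX2 receptor (residues 1-444), loaded with Fluo-4 AM plus probenecid. Calcium fluorescence was recorded for 1 min 40 s after compound addition. Activity (%) was scaled between DMSO (0%) and 10 nM orexin A (100%) and reported at 3 μM compound.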

[3] = other bond

Row | Structure (SMILES) | OX2R agonist activity (1 μM, %) (human OX2 receptor [1]) [%] | OX2R agonist activity (3 μM, %) (human OX2 receptor [2]) [%] | also measured
1 | CC(C)S(=O)(=O)N[C@@H]1[C@@H]2Cc3cccc(c3F)Oc3nc(ccc3C(F)F)CNC(=O)N2CC1(F)F [Example 110, N-[(15aS,16R)-7-(difluoromethyl)-17,17,20-trifluoro-1-oxo-2,3,15a,16,17,18-hexahydro-1H,15H-4,8-(azeno)-10,14-(metheno)pyrrolo[1,2-j][1,8,10]oxadiazacyclo-heptadecin-16-yl]propane-2-sulfonamide] | 108 | – | –
2 | Cc1cc(F)c2nc1Oc1cccc(c1F)C[C@H]1[C@@H](NS(=O)(=O)C(C)C)C(F)(F)CN1C(=O)NC2 [Example 109, N-[(15aS,16R)-5,17,17,20-tetrafluoro-7-methyl-1-oxo-2,3,15a,16,17,18-hexahydro-1H,15H-4,8-(azeno)-10,14-(metheno)pyrrolo[1,2-j][1,8,10]oxadiazacyclo-heptadecin-16-yl]propane-2-sulfonamide] | 108 | – | –
3 | CCS(=O)(=O)N[C@@H]1[C@@H]2Cc3ccc(C)c(c3F)Oc3nc(ccc3C)CNC(=O)N2CC1(F)F [Example 101, N-[(15aS,16R)-17,17,20-trifluoro-7,11-dimethyl-1-oxo-2,3,15a,16,17,18-hexahydro-1H,15H-4,8-(azeno)-10,14-(metheno)pyrrolo[1,2-j][1,8,10]oxadiazacyclohept-adecin-16-yl]ethanesulfonamide] | 108 | – | –
4 | CCS(=O)(=O)N[C@@H]1[C@@H]2Cc3cccc(c3F)Cc3cc(ccc3C)CNC(=O)N2CC1(F)F [Example 103, N-[(15aS,16R)-17,17,20-trifluoro-7-methyl-1-oxo-2,3,15a,16,17,18-hexahydro-1H,9H,15H-4,8:10,14-di(metheno)pyrrolo[1,2-c][1,3]diazacycloheptadecin-16-yl]ethanesulfonamide] | 104 | – | –
5 | CCS(=O)(=O)N[C@@H]1[C@@H]2Cc3cccc(c3F)Cc3nc(ccc3C)OCC(=O)N2CC1(F)F [Example 102, N-[(15aS,16R)-17,17,20-trifluoro-7-methyl-1-oxo-1,2,15a,16,17,18-hexahydro-9H,15H-4,8-(azeno)-10,14-(metheno)pyrrolo[1,2-d][1,4]oxazacycloheptadecin-16-yl]ethanesulfonamide] | 94 | – | –
6 | CCS(=O)(=O)N[C@@H]1[C@@H]2Cc3cccc(c3F)[C@H](C)c3nc(ccc3C)CNC(=O)N2CC1(F)F (single isomer, unassigned) [Example 106] | 90 | – | –
7 | O=C1NCc2ccc(Cl)c(n2)Oc2cccc(c2F)C[C@H]2[C@@H](NS(=O)(=O)C3CC3)C(F)(F)CN12 [Example 22, N-[(15aS,16R)-7-chloro-17,17,20-trifluoro-1-oxo-2,3,15a,16,17,18-hexahydro-1H,15H-4,8-(azeno)-14,10-(metheno)pyrrolo[1,2-j][1,8,10]oxadiazacyclo-heptadecin-16-yl]cyclopropanesulfonamide] | – | 100 | ring closure, yield of all isomers ([3]; from NCc1ccc(Cl)c(Oc2cccc(C[C@@H]3NCC(F)(F)[C@@H]3NS(=O)(=O)C3CC3)c2F)n1, di(N-succinimidyl) carbonate, THF, 1.85 mM, 25.0 °C, 0.08 h): 49.4%
8 | CCS(=O)(=O)N[C@@H]1[C@@H]2Cc3cccc(c3F)Cc3nc(ccc3C)CNC(=O)N2CC1(F)F [Example 104, N-[(15aS,16R)-17,17,20-trifluoro-7-methyl-1-oxo-2,3,15a,16,17,18-hexahydro-1H,9H,15H-4,8-(azeno)-10,14-(metheno)pyrrolo[1,2-c][1,3]diazacycloheptadecin-16-yl]ethanesulfonamide hydrochloride] | 109 | – | –
9 | Cc1ccc2nc1Oc1cccc(c1F)C[C@H]1[C@@H](NS(C)(=O)=O)C(F)(F)CN1C(=O)NC2 [Example 4, N-[(15aS,16R)-17,17,20-trifluoro-7-methyl-1-oxo-2,3,15a,16,17,18-hexahydro-1H,15H-4,8-(azeno)-10,14-(metheno)pyrrolo[1,2-j][1,8,10]oxadiazacyclo-heptadecin-16-yl]methanesulfonamide] | – | 105 | ring closure, yield of all isomers ([3]; from Cc1ccc(CN)nc1Oc1cccc(C[C@@H]2NCC(F)(F)[C@@H]2NS(C)(=O)=O)c1F, di(N-succinimidyl) carbonate/DIPEA, THF, 7.42 mM, 25.0 °C, 16.0 h): 40.1%
10 | Cc1ccc2nc1Oc1cccc(c1F)C[C@H]1[C@@H](NS(C)(=O)=O)C(F)(F)CN1C(=O)NC2C (stereo partly drawn) [Example 51, N-[(15aS,16R)-17,17,20-trifluoro-3,7-dimethyl-1-oxo-2,3,15a,16,17,18-hexahydro-1H,15H-4,8-(azeno)-14,10-(metheno)pyrrolo[1,2-j][1,8,10]oxadiazacyclo-heptadecin-16-yl]methanesulfonamide (optical isomer)] | – | 103 | ring closure, yield of all isomers ([3]; from Cc1ccc(C(C)N)nc1Oc1cccc(C[C@@H]2NCC(F)(F)[C@@H]2NS(C)(=O)=O)c1F, di(N-succinimidyl) carbonate, THF, 1.23 mM, 60.0 °C): 7.7%
11 | Cc1ccc2nc1Oc1cccc(c1)C[C@H]1[C@@H](NS(C)(=O)=O)C(F)(F)CN1C(=O)NC2 [Example 2, N-[(15aS,16R)-17,17-difluoro-7-methyl-1-oxo-2,3,15a,16,17,18-hexahydro-1H,15H-4,8-(azeno)-10,14-(metheno)pyrrolo[1,2-j][1,8,10]oxadiazacyclo-heptadecin-16-yl]methanesulfonamide] | – | 96 | ring closure, yield of all isomers ([3]; from Cc1ccc(CN)nc1Oc1cccc(C[C@@H]2NCC(F)(F)[C@@H]2NS(C)(=O)=O)c1, CDI/DIPEA, DMF, 2.0 mM, 25.0 °C, 14.0 h): 7.6%
12 | CCS(=O)(=O)N[C@@H]1[C@@H]2Cc3c(C)ccc(c3F)Oc3nc(ccc3C)CNC(=O)N2CC1(F)F [Example 98, N-[(15aS,16R)-17,17,20-trifluoro-7,13-dimethyl-1-oxo-2,3,15a,16,17,18-hexahydro-1H,15H-4,8-(azeno)-14,10-(metheno)pyrrolo[1,2-j][1,8,10]oxadiazacyclo-heptadecin-16-yl]ethanesulfonamide] | 65 | – | –
13 | CC(C)S(=O)(=O)N[C@@H]1[C@@H]2Cc3cccc(c3F)Oc3nc(ccc3Cl)CNC(=O)N2CC1(F)F [Example 108, N-[(15aS,16R)-7-chloro-17,17,20-trifluoro-1-oxo-2,3,15a,16,17,18-hexahydro-1H,15H-4,8-(azeno)-10,14-(metheno)pyrrolo[1,2-j][1,8,10]oxadiazacyclo-heptadecin-16-yl]propane-2-sulfonamide] | 101 | – | –
14 | Cc1ccc2nc1COc1cccc(c1F)C[C@H]1[C@@H](NS(C)(=O)=O)C(F)(F)CN1C(=O)NC2 [Example 54, N-[(16aS,17R)-18,18,21-trifluoro-7-methyl-1-oxo-2,3,16a,17,18,19-hexahydro-1H,9H,16H-4,8-(azeno)-11,15-(metheno)pyrrolo[2,1-h][1,9,11]oxadiazacyclo-octadecin-17-yl]methanesulfonamide] | – | 87 | ring closure, yield of all isomers ([3]; from Cc1ccc(CNC(=O)OC(C)(C)C)nc1COc1cccc(C[C@H]2[C@@H](NS(C)(=O)=O)C(F)(F)CN2C(=O)OC(C)(C)C)c1F, di(N-succinimidyl) carbonate / N-methylmorpholine, DIPEA, THF, 2.78 mM, 60.0 °C, 22.0 h, 2 steps): 14.4%
15 | CCS(=O)(=O)N[C@@H]1[C@@H]2Cc3cccc(c3F)[C@@H](C)c3nc(ccc3C)CNC(=O)N2CC1(F)F (single isomer, unassigned) [Example 105, N-[(9R,15aS,16R)-17,17,20-trifluoro-7,9-dimethyl-1-oxo-2,3,15a,16,17,18-hexahydro-1H,9H,15H-4,8-(azeno)-10,14-(metheno)pyrrolo[1,2-c][1,3]diazacycloheptadecin-16-yl]ethanesulfonamide or N-[(9S,15aS,16R)-17,17,20-trifluoro-7,9-dimethyl-1-oxo-2,3,15a,16,17,18-hexahydro-1H,9H,15H-4,8-(azeno)-10,14-(metheno)pyrrolo[1,2-c][1,3]diazacycloheptadecin-16-yl]ethanesulfonamide] | 106 | – | –

— patent US20240309016A1, “MACROCYCLIC HETEROCYCLE COMPOUNDS AND USE THEREOF” (TAKEDA PHARMACEUTICAL COMPANY LIMITED, priority 2023, published 2024)
